This note sets out measurements from US8962596B2 (Array BioPharma Inc., priority 2010, dated 2015).

Type in all cases: biochemical
In one assay the target is T1, Human Tyk2 kinase domain (Homo sapiens, UniProt P29597).
T1 construct: comprising amino acids 886 to 1187 with 10 additional histidine residues; 10xHis (histidine tag) (C, cleaved yes); made in house
T1 sequence (P29597 886-1187): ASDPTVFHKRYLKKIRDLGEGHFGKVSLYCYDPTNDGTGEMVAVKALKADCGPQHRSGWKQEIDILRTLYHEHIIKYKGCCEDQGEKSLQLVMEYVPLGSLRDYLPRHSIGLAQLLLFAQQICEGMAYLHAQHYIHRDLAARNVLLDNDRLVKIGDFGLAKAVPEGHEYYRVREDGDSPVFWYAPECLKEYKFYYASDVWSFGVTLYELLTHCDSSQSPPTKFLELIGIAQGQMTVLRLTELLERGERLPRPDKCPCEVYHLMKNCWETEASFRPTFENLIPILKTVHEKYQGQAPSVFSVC
In words: Tyk2 Inhibition Assay (Omnia kinase fluorescence peptide substrate assay). As to conditions: averaged IC50 ranges; assay of Example A; 10 μM (Km app) or 1 mM ATP, 2 nM Tyk2. The method, boiled down: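 2 nM His-tag-cleaved kinase domain (aa 886–1187) with 8 μM Omnia Y12 peptide, 10 μM (Km app) or 1 mM ATP, pH 7.4 HEPES/10 mM MgCl2, 2% DMSO. Fluorescence (ex 360/em 485 nm) every 50 s for 45 min; IC50 from 4-parameter fit of POC, top dose 10 μM.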

Another assay deals with T2, JAK1 (Homo sapiens, UniProt P23458).
T2 construct: purchased Invitrogen Corporation, Carlsbad, Calif; PV4775
T2 sequence (P23458 whole entry): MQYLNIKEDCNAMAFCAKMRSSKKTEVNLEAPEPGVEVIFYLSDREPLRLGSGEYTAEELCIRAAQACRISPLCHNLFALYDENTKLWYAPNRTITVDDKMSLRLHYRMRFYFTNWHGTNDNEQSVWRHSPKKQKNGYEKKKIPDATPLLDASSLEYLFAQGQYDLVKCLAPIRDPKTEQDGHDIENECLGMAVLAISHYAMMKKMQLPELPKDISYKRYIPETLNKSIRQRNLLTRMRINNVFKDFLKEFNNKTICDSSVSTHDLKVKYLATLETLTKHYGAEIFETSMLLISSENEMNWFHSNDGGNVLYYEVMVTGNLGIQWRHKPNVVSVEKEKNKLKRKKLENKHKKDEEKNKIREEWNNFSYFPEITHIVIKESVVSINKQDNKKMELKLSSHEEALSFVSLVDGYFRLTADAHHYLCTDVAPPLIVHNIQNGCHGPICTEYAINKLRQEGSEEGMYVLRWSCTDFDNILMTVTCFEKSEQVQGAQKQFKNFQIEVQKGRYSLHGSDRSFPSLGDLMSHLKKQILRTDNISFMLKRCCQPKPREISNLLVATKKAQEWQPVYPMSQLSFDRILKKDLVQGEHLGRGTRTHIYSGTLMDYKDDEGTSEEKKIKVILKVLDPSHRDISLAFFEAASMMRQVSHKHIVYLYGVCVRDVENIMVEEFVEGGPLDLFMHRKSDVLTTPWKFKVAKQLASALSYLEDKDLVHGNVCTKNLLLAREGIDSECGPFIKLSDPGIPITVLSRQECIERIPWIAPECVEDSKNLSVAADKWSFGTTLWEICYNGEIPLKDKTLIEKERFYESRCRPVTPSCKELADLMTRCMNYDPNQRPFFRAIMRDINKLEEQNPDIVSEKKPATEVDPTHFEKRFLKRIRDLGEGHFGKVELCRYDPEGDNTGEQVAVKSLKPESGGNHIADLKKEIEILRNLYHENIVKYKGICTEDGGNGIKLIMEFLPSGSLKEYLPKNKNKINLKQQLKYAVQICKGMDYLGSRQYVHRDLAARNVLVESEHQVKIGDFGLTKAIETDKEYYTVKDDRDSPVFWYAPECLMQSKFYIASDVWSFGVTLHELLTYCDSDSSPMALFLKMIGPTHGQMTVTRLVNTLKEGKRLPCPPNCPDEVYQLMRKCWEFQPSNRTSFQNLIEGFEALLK
Nature of the assay: JAK1 Inhibition Assay (Omnia kinase fluorescence peptide substrate assay). As to conditions: averaged IC50 ranges; assay of Example B; 40 μM (Km app) or 1 mM ATP, 15 nM JAK1.

In the next assay the target is T3, JAK2 (Homo sapiens, UniProt O60674).
T3 construct: purchased Invitrogen Corporation, Carlsbad, Calif; PV4288
T3 sequence (O60674 whole entry): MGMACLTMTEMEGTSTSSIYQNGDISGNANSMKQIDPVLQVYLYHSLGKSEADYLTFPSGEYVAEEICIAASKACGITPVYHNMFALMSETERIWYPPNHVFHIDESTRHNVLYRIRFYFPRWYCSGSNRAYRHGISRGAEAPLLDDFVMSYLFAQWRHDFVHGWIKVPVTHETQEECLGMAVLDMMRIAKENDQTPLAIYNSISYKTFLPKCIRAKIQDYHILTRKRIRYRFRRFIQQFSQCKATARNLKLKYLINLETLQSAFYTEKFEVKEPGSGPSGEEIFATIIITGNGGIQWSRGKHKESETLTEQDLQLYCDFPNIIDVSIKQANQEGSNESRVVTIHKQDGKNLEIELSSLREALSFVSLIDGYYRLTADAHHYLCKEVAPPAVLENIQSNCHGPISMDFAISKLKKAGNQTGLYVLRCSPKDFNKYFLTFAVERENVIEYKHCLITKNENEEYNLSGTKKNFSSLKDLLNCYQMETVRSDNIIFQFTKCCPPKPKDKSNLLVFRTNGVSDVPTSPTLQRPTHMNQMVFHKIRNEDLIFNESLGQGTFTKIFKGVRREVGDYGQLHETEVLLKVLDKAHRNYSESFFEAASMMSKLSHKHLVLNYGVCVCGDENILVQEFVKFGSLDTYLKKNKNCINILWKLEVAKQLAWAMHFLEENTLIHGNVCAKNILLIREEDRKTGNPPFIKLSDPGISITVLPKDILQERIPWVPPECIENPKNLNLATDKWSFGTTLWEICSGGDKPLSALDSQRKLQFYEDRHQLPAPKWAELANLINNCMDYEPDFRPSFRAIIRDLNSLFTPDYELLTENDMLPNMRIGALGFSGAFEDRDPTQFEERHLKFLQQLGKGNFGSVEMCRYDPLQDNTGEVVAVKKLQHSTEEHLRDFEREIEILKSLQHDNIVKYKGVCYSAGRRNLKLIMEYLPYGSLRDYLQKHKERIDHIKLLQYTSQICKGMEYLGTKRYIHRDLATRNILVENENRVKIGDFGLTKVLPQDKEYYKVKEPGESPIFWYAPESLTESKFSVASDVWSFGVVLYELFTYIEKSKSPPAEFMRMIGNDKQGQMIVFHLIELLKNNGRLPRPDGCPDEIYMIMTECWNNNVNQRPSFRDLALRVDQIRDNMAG
In words: JAK2 Inhibition Assay (Omnia kinase fluorescence peptide substrate assay). The conditions noted are these: averaged IC50 ranges; assay of Example C; 25 μM (Km app) or 1 mM ATP, 5 nM JAK2. The method, boiled down:
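5 nM JAK2 phosphorylated 10 μM Omnia Y7 peptide with ATP at 25 μM (Km app) or 1 mM, in 25 mM HEPES pH 7.4, 10 mM MgCl2, 0.01% Triton X-100, 1 mM DTT, 2% DMSO. Fluorescence (360/485 nm) was read every 50 s for 45 min. 10-point 3-fold series from 10 μM; POC versus uninhibited and background controls, 4-parameter logistic IC50.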

Another assay addresses T4, JAK3 (Homo sapiens, UniProt P52333).
T4 construct: purchased Invitrogen Corporation, Carlsbad, Calif; PV4080
T4 sequence (P52333 1-1124): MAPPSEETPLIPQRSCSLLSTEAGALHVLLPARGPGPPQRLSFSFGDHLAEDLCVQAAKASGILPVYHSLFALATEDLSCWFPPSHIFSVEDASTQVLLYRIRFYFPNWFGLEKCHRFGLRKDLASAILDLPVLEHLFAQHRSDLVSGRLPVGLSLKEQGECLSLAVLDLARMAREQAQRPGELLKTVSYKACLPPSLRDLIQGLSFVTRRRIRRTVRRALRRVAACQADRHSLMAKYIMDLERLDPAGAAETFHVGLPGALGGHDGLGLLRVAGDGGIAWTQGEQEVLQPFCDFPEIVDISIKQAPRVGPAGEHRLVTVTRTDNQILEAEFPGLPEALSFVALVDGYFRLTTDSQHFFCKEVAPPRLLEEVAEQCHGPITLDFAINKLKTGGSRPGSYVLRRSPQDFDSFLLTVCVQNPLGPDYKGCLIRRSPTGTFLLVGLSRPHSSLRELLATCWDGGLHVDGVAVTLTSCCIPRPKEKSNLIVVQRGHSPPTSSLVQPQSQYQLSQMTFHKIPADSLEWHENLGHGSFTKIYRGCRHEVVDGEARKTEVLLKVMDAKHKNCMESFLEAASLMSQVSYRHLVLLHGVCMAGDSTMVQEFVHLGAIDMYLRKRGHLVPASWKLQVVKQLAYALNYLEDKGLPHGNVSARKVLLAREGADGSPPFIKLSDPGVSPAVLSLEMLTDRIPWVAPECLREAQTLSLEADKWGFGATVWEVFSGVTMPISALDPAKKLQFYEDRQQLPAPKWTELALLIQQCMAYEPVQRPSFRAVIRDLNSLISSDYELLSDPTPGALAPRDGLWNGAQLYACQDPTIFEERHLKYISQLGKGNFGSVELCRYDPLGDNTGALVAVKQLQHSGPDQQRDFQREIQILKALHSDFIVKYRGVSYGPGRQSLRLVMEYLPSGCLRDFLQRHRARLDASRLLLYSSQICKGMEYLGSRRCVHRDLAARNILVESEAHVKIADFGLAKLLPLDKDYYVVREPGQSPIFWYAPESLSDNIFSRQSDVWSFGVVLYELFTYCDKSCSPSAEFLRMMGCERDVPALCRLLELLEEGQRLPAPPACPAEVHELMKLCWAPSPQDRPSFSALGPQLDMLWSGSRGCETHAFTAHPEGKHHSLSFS
In words: JAK3 Inhibition Assay (Omnia kinase fluorescence peptide substrate assay). As to conditions: averaged IC50 ranges; assay of Example D; 10 μM (Km app) or 1 mM ATP, 2.5 nM JAK3. The essentials:
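Kinase at 2.5 nM with 10 µM Omnia Y7 peptide and 10 µM (Km app) or 1 mM ATP in 25 mM HEPES pH 7.4, 10 mM MgCl2, 1 mM DTT, 0.01% Triton X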

Regarding `CCN1CC(CC#N)(n2cc(-c3nc(-c4cnn(C)c4)cc4nccn34)cn2)C1` [Example 72, 2-(1-ethyl-3-(4-(7-(1-methyl-1H-pyrazol-4-yl)imidazo[1,2-c]pyrimidin-5-yl)-1H-pyrazol-1-yl)azetidin-3-yl)acetonitrile], the IC50 was 0.01 to 0.1 µM at Human Tyk2 kinase domain, above 1 µM against JAK1, 0.1 to 1 µM against JAK2 and above 1 µM on JAK3.
On to `Cn1cc(-c2cc3nccn3c(-c3cnn(C4(CC#N)CN(CC#N)C4)c3)n2)cn1` [Example 73, 2,2′-(3-(4-(7-(1-methyl-1H-pyrazol-4-yl)imidazo[1,2-c]pyrimidin-5-yl)-1H-pyrazol-1-yl)azetidine-1,3-diyl)diacetonitrile], for which the IC50 at Human Tyk2 kinase domain was below 0.01 µM; on JAK1, 0.1 to 1 µM; on JAK2 it was 0.01 to 0.1 µM; against JAK3, above 1 µM.
In the case of `Cn1cc(-c2cc3nccn3c(-c3cnn(C4(CC#N)CN(CCCF)C4)c3)n2)cn1` [Example 74, 2-(1-(3-fluoropropyl)-3-(4-(7-(1-methyl-1H-pyrazol-4-yl)imidazo[1,2-c]pyrimidin-5-yl)-1H-pyrazol-1-yl)azetidin-3-yl)acetonitrile], the IC50 was below 0.01 µM against Human Tyk2 kinase domain, 0.1 to 1 µM at JAK1, 0.1 to 1 µM against JAK2 and above 1 µM at JAK3.
Consider `CC#CCN1CC(CC#N)(n2cc(-c3nc(-c4cnn(C)c4)cc4nccn34)cn2)C1` [Example 75, 2-(1-(but-2-ynyl)-3-(4-(7-(1-methyl-1H-pyrazol-4-yl)imidazo[1,2-c]pyrimidin-5-yl)-1H-pyrdzol-1-yl)azetidin-3-yl)acetonitrile], for which the IC50 is 0.1 to 1 µM against Human Tyk2 kinase domain, above 1 µM against JAK1, above 1 µM against JAK2 and above 1 µM against JAK3.
As to `C#CCN1CC(CC#N)(n2cc(-c3nc(-c4cnn(C)c4)cc4nccn34)cn2)C1` [Example 76, 2-(3-(4-(7-(1-methyl-1H-pyrazol-4-yl)imidazo[1,2-c]pyrimidin-5-yl)-1H-pyrazol-1-yl)-1-(prop-2-ynyl)azetidin-3-yl)acetonitrile], the half-inhibitory concentration (IC50) against Human Tyk2 kinase domain is 0.01 to 0.1 µM; against JAK1, 0.1 to 1 µM; at JAK2 it was 0.1 to 1 µM; against JAK3, above 1 µM.
With `Cn1cc(-c2cc3nccn3c(-c3cnn(C4(CC#N)CN(CCF)C4)c3)n2)cn1` [Example 77, 2-(1-(2-fluoroethyl)-3-(4-(7-(1-methyl-1H-pyrazol-4-yl)imidazo[1,2-c]pyrimidin-5-yl)-1H-pyrazol-1-yl)azetidin-3-yl)acetonitrile], the IC50 is below 0.01 µM on Human Tyk2 kinase domain, 0.1 to 1 µM at JAK1, 0.01 to 0.1 µM at JAK2 and above 1 µM on JAK3.
Consider `Cn1cc(-c2cc3nccn3c(-c3cnn(C4(CC#N)CN(CCC#N)C4)c3)n2)cn1` [Example 78, 3-(3-(cyanomethyl)-3-(4-(7-(1-methyl-1H-pyrazol-4-yl)imidazo[1,2-c]pyrimidin-5-yl)-1H-pyrazol-1-yl)azetidin-1-yl)propanenitrile], for which the IC50 at Human Tyk2 kinase domain is 0.01 to 0.1 µM; against JAK1, 0.1 to 1 µM; against JAK2, 0.1 to 1 µM; against JAK3, above 1 µM.
Consider `Cn1cc(-c2cc3nccn3c(-c3cnn(C4(CC#N)CN(C(CF)CF)C4)c3)n2)cn1` [Example 79, 2-(1-(1,3-difluoropropan-2-yl)-3-(4-(7-(1-methyl-1H-pyrazol-4-yl)imidazo[1,2-c]pyrimidin-5-yl)-1H-pyrazol-1-yl)azetidin-3-yl)acetonitrile], for which the IC50 was 0.01 to 0.1 µM at Human Tyk2 kinase domain, above 1 µM at JAK1, 0.1 to 1 µM on JAK2 and above 1 µM on JAK3.
On to `Cn1cc(-c2cc3nccn3c(-c3cnn(C4(CC#N)CN(CC(F)(F)C(F)F)C4)c3)n2)cn1` [Example 80, 2-(3-(4-(7-(1-methyl-1H-pyrazol-4-yl)imidazo[1,2-c]pyrimidin-5-yl)-1H-pyrazol-1-yl)-1-(2,2,3,3-tetrafluoropropyl)azetidin-3-yl)acetonitrile], for which the IC50 is below 0.01 µM on Human Tyk2 kinase domain, 0.1 to 1 µM on JAK1, 0.01 to 0.1 µM against JAK2 and above 1 µM against JAK3.
On to `CCCN1CC(CC#N)(n2cc(-c3nc(-c4cnn(C)c4)cc4nccn34)cn2)C1` [Example 81, 2-(3-(4-(7-(1-methyl-1H-pyrazol-4-yl)imidazo[1,2-c]pyrimidin-5-yl)-1H-pyrazol-1-yl)-1-propylazetidin-3-yl)acetonitrile], for which the IC50 against Human Tyk2 kinase domain was 0.01 to 0.1 µM; against JAK1, 0.1 to 1 µM; against JAK2, 0.1 to 1 µM; on JAK3 it was above 1 µM.
Regarding `CC(C)N1CC(CC#N)(n2cc(-c3nc(-c4cnn(C)c4)cc4nccn34)cn2)C1` [Example 82, 2-(1-isopropyl-3-(4-(7-(1-methyl-1H-pyrazol-4-yl)imidazo[1,2-c]pyrimidin-5-yl)-1H-pyrazol-1-yl)azetidin-3-yl)acetonitrile], the IC50 is 0.01 to 0.1 µM against Human Tyk2 kinase domain, above 1 µM against JAK1, 0.1 to 1 µM against JAK2 and above 1 µM on JAK3.
On to `CN1CC(CC#N)(n2cc(-c3nc(-c4cnn(C)c4)cc4nccn34)cn2)C1` [Example 83, 2-(1-methyl-3-(4-(7-(1-methyl-1H-pyrazol-4-yl)imidazo[1,2-c]pyrimidin-5-yl)-1H-pyrazol-1-yl)azetidin-3-yl)acetonitrile], for which the 50% inhibitory concentration (IC50) was 0.01 to 0.1 µM at Human Tyk2 kinase domain, above 1 µM on JAK1, 0.1 to 1 µM against JAK2 and above 1 µM against JAK3.
Regarding `Cn1cc(-c2cc3nccn3c(-c3cnn(C4(CC#N)CN(CC5CC5)C4)c3)n2)cn1` [Example 84, 2-(1-(cyclopropylmethyl)-3-(4-(7-(1-methyl-1H-pyrazol-4-yl)imidazo[1,2-c]pyrimidin-5-yl)-1H-pyrazol-1-yl)azetidin-3-yl)acetonitrile], the IC50 on Human Tyk2 kinase domain was below 0.01 µM; against JAK1, 0.1 to 1 µM; at JAK2, 0.01 to 0.1 µM; against JAK3, above 1 µM.
Turning to `CC(C)CN1CC(CC#N)(n2cc(-c3nc(-c4cnn(C)c4)cc4nccn34)cn2)C1` [Example 85, 2-(1-isobutyl-3-(4-(7-(1-methyl-1H-pyrazol-4-yl)imidazo[1,2-c]pyrimidin-5-yl)-1H-pyrazol-1-yl)azetidin-3-yl)acetonitrile], the IC50 on Human Tyk2 kinase domain is 0.01 to 0.1 µM; against JAK1, 0.1 to 1 µM; at JAK2 it was 0.1 to 1 µM; at JAK3, above 1 µM.
